# Reference: patent US8362005B2, “Monocyclic amide CGRP receptor antagonists” (Merk. Sharp & Dohme Corp., priority 2008, dated 2013)
# Ends that are not written are not given here.
# What was measured:
# [1] = test system: acute attacks of migraine; settings: clinical trials; cited from earlier work
# [2] = test system: headache induced by CGRP infusion; settings: control group, clinical; cited from earlier work
# facial blood flow [3] = settings: marmoset, electrical stimulation of the trigeminal ganglion; cited from earlier work
# [4] = target: T1, recombinant human CL receptor/RAMP1 (Homo sapiens, UniProt O60894+Q16602); test: Recombinant receptor binding assay (125I-hCGRP, membranes of HEK 293 cells); settings: 10 pM 125I-hCGRP
# T1 construct: expressed in transfected cells; membranes
# Experimental: RECOMBINANT RECEPTOR: Human CL receptor (Genbank accession number L76380) was subcloned into the expression vector pIREShyg2 (BD Biosciences Clontech) as a 5′NheI and 3′ PmeI fragment. Human RAMP 1 (Genbank accession number AJ001014) was subcloned into the expression vector pIRESpuro2 (BD Biosciences Clontech) as a 5′NheI and 3′NotI fragment. HEK 293 cells (human embryonic kidney cells; ATCC #CRL-1573) were cultured in DMEM with 4.5 g/L glucose, 1 mM sodium pyruvate and 2 mM glutamine supplemented with 10% fetal bovine serum (FBS), 100 units/mL penicillin and 100 μg/mL streptomycin, and maintained at 37° C. and 95% humidity. Cells were subcultured by treatment with 0.25% trypsin with 0.1% EDTA in HBSS. Stable cell line generation was accomplished by co-transfecting 10 μg of DNA with 30 μg Lipofectamine 2000 (Invitrogen) in 75 cm^2 flasks. CL receptor and RAMP1 expression constructs were co-transfected in equal amounts. […]
# [formula] Where Y is observed CPM bound, Ymax is total bound counts, Ymin is non specific bound counts, (Ymax−Ymin) is specific bound counts, % Imax is the maximum percent inhibition, % I min is the minimum percent inhibition, radiolabel is the probe, and the Kd is the apparent dissociation constant for the radioligand for the receptor as determined by Hot saturation experiments.
# facial blood flow [5] = settings: rat, trigeminal ganglion stimulation; cited from earlier work
# middle meningeal artery = settings: rats, electrical stimulation of the dura mater, prior administration; cited from earlier work
# T1 sequence (Q16602 23-461): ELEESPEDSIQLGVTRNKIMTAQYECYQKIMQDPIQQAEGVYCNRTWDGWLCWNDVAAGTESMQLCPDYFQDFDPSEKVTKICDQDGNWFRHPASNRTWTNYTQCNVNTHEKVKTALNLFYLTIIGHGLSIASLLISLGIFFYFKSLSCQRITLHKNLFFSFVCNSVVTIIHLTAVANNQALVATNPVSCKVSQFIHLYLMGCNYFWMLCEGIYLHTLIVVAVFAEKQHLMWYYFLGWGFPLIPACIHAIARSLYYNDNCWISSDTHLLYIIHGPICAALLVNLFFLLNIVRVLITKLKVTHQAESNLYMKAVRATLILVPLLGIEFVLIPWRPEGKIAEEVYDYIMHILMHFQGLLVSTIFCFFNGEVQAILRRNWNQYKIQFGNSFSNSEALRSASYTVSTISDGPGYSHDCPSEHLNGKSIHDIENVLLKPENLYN
# T1 sequence (O60894 27-148): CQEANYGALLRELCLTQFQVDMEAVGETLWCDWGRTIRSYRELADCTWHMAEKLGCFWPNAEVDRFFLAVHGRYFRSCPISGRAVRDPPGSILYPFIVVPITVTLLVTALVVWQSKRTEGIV
compound,measurement,setting,value
NCCCC[C@H](NC(=O)[C@@H](Cc1cc(Br)c(O)c(Br)c1)NC(=O)N1CCC(N2Cc3ccccc3NC2=O)CC1)C(=O)N1CCN(c2ccncc2)CC1 [BIBN4096BS],efficacy in treating acute attacks of migraine,[1],effective in treating acute attacks of migraine
same,prevention of headache induced by CGRP infusion,[2],able to prevent headache induced by CGRP infusion
same,block of the increase in facial blood flow,facial blood flow [3],could be blocked
"O=C(Cn1c(-c2ccccc2)c(Cl)nc(N2CCCC2)c1=O)Nc1ccc2c(c1)CC1(C2)C(=O)Nc2ncccc21 (stereo not drawn) [Example 5, 2-(5-Chloro-2-oxo-6-phenyl-3-pyrrolidin-1-ylpyrazin-1(2H)-yl)-N-(2′,-oxo-1,1′,2′,3-tetrahydrospiro[indene-2,3′-pyrrolo[2,3-b]pyridin]-5-yl)acetamide]",Ki,[4],130 nM
"CGRP(8-37): a peptide CGRP antagonist; fragment of CGRP that lacks seven N-terminal amino acid residues (VTHRLAGLLSRSGGVVKNNFVPTNVGSKAF; ends and bridges not checked; UniProt P06881 90-119, looked up, fragment)",inhibition of increased facial blood flow,facial blood flow [5],inhibited
same,block of the increase in diameter of the middle meningeal artery,middle meningeal artery,blocked
